Where no end group is shown, it is not given here.
Key:
mice = assay: Y maze spatial memory, normal mice; type: in vivo, mouse
Method: The Y maze consists of three identical alleys (30 cm in length, 10 cm in width and 17 cm in height) with the three arms separated by 120° angles. To minimize stress, the maze is located in a sound-attenuated room under dim illumination, with the floor of the maze covered with sawdust. After each trial, the sawdust is mixed to eliminate olfactory cues. For spatial orientation, visual cues are placed on the walls of the testing room.
The test consisted of two trials, separated by a time interval known as the intertrial interval. During the acquisition trial, the animals were placed at the distal end of one arm, their heads pointing away from the centre of the maze. The mice were allowed to visit only two accessible arms of the maze for 3 minutes. At the end of the acquisition trial, the mice were replaced in their cages for the intertrial interval. During the retention trial, the animals had access to all three arms for 5 minutes. The number and duration of time spent in the novel arm were documented.
A shorter intertrial interval (2 hours) separating the acquisition phase from the retention phase enables amnesiant effects to be detected. Control mice still remember the location of the novel arm and will preferentially spend more time (45-50% of time) in that arm.
Mice were surgically implanted with an infusion cannula in the dorsal third ventricle. […]

SK-N-MC cells = assay: [^3H]-thymidine uptake in SK-N-MC cells; type: cell-based; conditions: Ang IV 10^−10-10^−7 M; LVVYPWTQRF 10^−10-10^−6 M
Method: NG108-15 and SK-N-MC cells were cultured in DMEM supplemented with 10% heat-inactivated FCS, 2% HAT supplement, and 100 U/ml penicillin/streptomycin. Cells were routinely used between passages 20 and 30.
Cells were plated at a density of 3×10^4 cells/well in 24 well Falcon plates that had been coated with 0.1 mg/ml poly-L-lysine hydrobromide. The cells were allowed to adhere overnight, and then serum deprived for 48 h before being treated with […] (SEQ ID NO:2) and/or Ang IV (10^−10 to 10^−6 M) for 24 h in medium with or without serum. Five hours before the end of the experiment 1 μCi of ^3H-thymidine was added to each well. At the completion of the incubation, cells were washed twice with 1 ml of PBS at 4° C., followed by 5% trichloroacetic acid at 4° C. for 30 min, which was aspirated before solubilizing the cells in 1 ml 0.25 M NaOH and 0.1% SDS for 30 min at 37° C. Samples were then collected into 5 ml of Ready Value scintillation fluid and ^3H measured in a liquid scintillation counter.

rats = assay: Morris water maze, scopolamine-induced amnesia; type: in vivo, rat; conditions: 1 nmole icv after 70 nmole scopolamine
From the text: The maze consisted of a circular tank, 1.6 m in diameter by 0.6 m in height, containing water to a depth of 30 cm. The room contained visual cues placed 40 cm from the edge of the tank. The rats were subjected to two days of familiarisation to the task, during which the escape pedestal is visible to the animals. During the acquisition phase, for the following 5 days, the water in the tank was rendered opaque, and the escape platform was submerged under the surface of the water. The animals had to rely on the visual cues around the room to find the submerged escape pedestal. The latency of the animal in finding the pedestal during the acquisition phase was taken as a measure of the spatial memory performance of the animal.
Rats were surgically implanted with cannulae in their lateral ventricles and allowed two to three days of recovery. During the familiarisation trials on days 1 and 2, the animals were placed in the water facing the wall of the tank from different starting positions equidistant from the escape pedestal. When the animals located and mounted the pedestal, they were allowed 30 seconds on the pedestal before the commencement of the next trial. Four consecutive trials were carried out on each animal on each day, and the mean latency period before the animal reached the pedestal was plotted. […]

IRAP (AT4 receptor) = target: T1, IRAP (AT4 receptor) (Homo sapiens, UniProt Q9UIQ6); assay: ^125I-Nle^1 Ang IV binding to membranes of HEK 293 cells transfected with IRAP cDNA; conditions: IRAP cDNA transfected cells
T1 construct: expressed in transfected cells; host or cells: HEK 293 cells (membranes)
T1 sequence (Q9UIQ6 whole entry): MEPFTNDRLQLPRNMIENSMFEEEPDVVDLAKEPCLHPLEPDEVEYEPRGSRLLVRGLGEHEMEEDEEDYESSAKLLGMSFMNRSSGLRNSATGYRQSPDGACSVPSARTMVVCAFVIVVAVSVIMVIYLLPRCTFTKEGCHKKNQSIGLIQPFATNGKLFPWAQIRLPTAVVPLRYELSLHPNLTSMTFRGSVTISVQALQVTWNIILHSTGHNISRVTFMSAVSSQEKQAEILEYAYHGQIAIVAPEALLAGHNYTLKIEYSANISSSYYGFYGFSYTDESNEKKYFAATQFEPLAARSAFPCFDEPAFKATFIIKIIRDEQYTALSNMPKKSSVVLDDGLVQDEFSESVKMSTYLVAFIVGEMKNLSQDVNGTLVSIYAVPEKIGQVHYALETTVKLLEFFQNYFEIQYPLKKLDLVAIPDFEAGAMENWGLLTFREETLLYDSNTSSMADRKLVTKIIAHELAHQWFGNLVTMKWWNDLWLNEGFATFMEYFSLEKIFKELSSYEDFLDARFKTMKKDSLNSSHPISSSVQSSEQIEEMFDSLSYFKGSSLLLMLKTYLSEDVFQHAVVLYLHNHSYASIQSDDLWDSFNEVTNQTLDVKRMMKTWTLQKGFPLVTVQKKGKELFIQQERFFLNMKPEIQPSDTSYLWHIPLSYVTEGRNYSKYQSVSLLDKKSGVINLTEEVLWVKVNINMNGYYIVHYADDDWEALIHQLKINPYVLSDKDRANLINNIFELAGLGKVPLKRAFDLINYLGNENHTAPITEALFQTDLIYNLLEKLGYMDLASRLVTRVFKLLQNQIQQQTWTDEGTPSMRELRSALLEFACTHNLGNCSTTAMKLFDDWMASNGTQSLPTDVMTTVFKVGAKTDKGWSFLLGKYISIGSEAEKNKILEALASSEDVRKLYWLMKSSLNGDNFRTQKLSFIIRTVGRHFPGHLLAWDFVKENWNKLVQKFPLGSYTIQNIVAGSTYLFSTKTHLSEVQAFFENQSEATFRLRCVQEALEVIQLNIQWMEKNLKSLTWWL
From the text: The amount of radioligand bound to the membranes from HEK 293 cells transfected with IRAP cDNA was expressed as a percentage of radioligand bound to membranes from HEK 293 cells transfected with control plasmids.

IRAP = target: T2, IRAP (Homo sapiens, UniProt Q9UIQ6); assay: IRAP enzymatic activity, hydrolysis of L-leucine-β-naphthylamide (fluorescence); type: biochemical
T2 construct: expressed in transfected cells; host or cells: HEK 293T cells (solubilised membrane protein)
T2 sequence (Q9UIQ6 whole entry): as above
From the text: For example, Hek293 cells stably transfected with a eukaryotic expression vector expressing the AT4 receptor gene may be utilized. An example of this is the vector pcDNA-3 containing the cDNA encoding the full length AT4 receptor. Two assay systems are used, one for each spliced variant of the human AT4 receptor gene. The assay system involves the measurement of the rate of hydrolysis of L-leucyl β-naphthylamide by the AT4 receptor. The rate of hydrolysis by the transfected cells is followed by recording the increase in fluorescence (excitation at 340 nm, emission at 410 nm) using a purpose-designed fluorimeter. Test compounds are added to the assay system, and their effects on the hydrolysis of L-leucyl β-naphthylamide are a direct indicator of their modulation of AT4 receptor activity.
Crude membranes were prepared from HEK 293 cells stably transfected with pcDNA-3 containing the cDNA encoding the full length AT4 receptor/IRAP, using the same method as that described for bovine adrenal membranes. The membranes were solubilised in 50 mM Tris-HCl containing 1% Triton-X100 at 4° C. for 16 h. The IRAP enzymatic activity was determined by the hydrolysis of a synthetic substrate, L-leucine-β-naphthylamide, and monitored by the release of a fluorogenic product on a spectrophotometer set at excitation 340 nm and emission 410 nm. One hundred μM of the substrate was added to 10 μg of solubilised membranes, and the increase in fluorescence monitored for 10 min.
Samples were assayed 2-3 times in triplicate, except controls, which were performed 5 times in triplicate.

Sequence: LVVYPWTQRF
- time in novel arm versus control mice (mice; after 6 days of infusion at 0.3 pmol/h): indistinguishable from each other
- time spent in the novel arm (mice; after three days of infusion at 0.3 pmol/h, 6 h intertrial interval, control approximately 33%): 50-60 % of time
- increase of [^3H]-thymidine uptake (SK-N-MC cells): up to 81 % above control levels
- latency in locating the submerged pedestal (rats): reversed the scopolamine-induced latency
- binding of ^125I-Nle^1 angiotensin IV to IRAP sites inhibited by ligand (IRAP (AT4 receptor)): competitively inhibited
- Ki (IRAP): 845 nM
- hydrolysis of L-leucine-β-naphthylamide by membranes containing IRAP (IRAP; 10 mM peptide): totally abolished
- type of inhibition of IRAP (IRAP; Lineweaver-Burk analysis): competitive inhibitors

Source: patent US20050020519A1, “Modulation of insulin-regulated aminopeptidase (irap)/angiotensin iv (at4) receptor activity” (priority 2001, published 2005)
